Assay results from PMC10807245 (Protein Science : A Publication of the Protein Society, 2024).
Where a SMILES comes first, the peptide text is derived from it. Where no end group is shown, it is not given here. The star is where a group is joined. FITC = O=C1OC2(c3ccc(O)cc3Oc3cc(O)ccc32)c2ccc(NC(=S)*)cc21; Ahx = NCCCCCC(=O)O

Columns and labels:
IMPα2ΔIBB [1] = molecular target: T1, IMPα2ΔIBB (Mus musculus, UniProt P52293); experiment: biochemical; assay type: binding; details: for binding to IMPα2ΔIBB: FITC-labeled MCPyV LTA NLS peptides, EMSAs and FP assays, in words; for Kd: SEM
IMPα7ΔIBB = IMPα7ΔIBB (Homo sapiens, UniProt O60684); experiment: FP assay, FITC-cNLS peptide binding to IMPα7ΔIBB; details: FITC-Ahx-cNLS peptide, two-fold dilutions of recombinant IMPα7ΔIBB, tris-buffered saline, 200 μL, one site specific binding fit, mean ± SEM, three independent experiments, read-out: Kd (nM), a7
Source text: (§1) Recombinant IMPαΔIBB proteins were produced for structural analysis and assays to elucidate the binding profiles with PyV LTAs. For this, plasmid constructs encoding IMPα isoforms with an N‐terminal truncation removing the autoinhibitory IBB domain (ΔIBB) were synthesized (GenScript Biotech, Singapore). Codon optimized genes were designed with an N‐terminal 6xHis tag and TEV protease cleavage site and were cloned into the BamHI site of pET30a (GenScript Biotech, Singapore). […] For protein expression, the plasmids were transformed via heat shock into BL21(DE3)pLysS E. coli cells (Thermofisher Scientific, Monza, Italy) and grown in 1 L baffled flasks at room temperature using auto‐induction methods for 24–48 h (Studier, [2005]). […] Following this, the 6xHis tag was cleaved using TEV protease incubated overnight at 4°C, and then further purified via gel filtration using a Superdex 200 pg 26/600 column (Cytiva, Marlborough, USA) and tris‐buffered saline (50 mM tris, 125 mM sodium chloride, pH 8.0). […] Peak fractions were assessed for purity using SDS‐PAGE, then pooled and concentrated using 10 kDa cutoff centrifugal filters (Merck Millipore, Milan, Italy). All samples were aliquoted and stored at −80°C until further use.
(§2) Peptides corresponding to the cNLS regions of each PyV were synthesized for use in crystallography and binding assays. An automated CEM Liberty Blue solid phase peptide synthesizer generated each peptide with an added N‐terminal fluorescein isothiocyanate (FITC) tag. The reaction was performed using DIC and Oxyma coupling reagent and Fmoc deprotection with 20% (v/v) piperidine/DMF solution, all at 90°C. Following the final coupling, peptides were cleaved from the resin using a solution of TFA/TIPS/H2O (95/2.5/2.5) for 3 h. Purification was performed with HPLC and the peptides lyophilized to powder. […]
(§3) FP was used to quantify binding affinities of the HPyV LTA cNLSs for IMPαΔIBB proteins. […] The CLARIOstar Plus (BMG Labtech, Mornington, Australia) plate reader measured FP values, with each assay repeated in triplicate. […]

IMPα3ΔIBB = IMPα3ΔIBB (Homo sapiens, UniProt O00629); experiment: biochemical; assay type: binding; details: for Kd: SEM
Source text: as §1
Peptides corresponding to the cNLS regions of each PyV were synthesized for use in crystallography and binding assays. An automated CEM Liberty Blue solid phase peptide synthesizer generated each peptide with an added N‐terminal fluorescein isothiocyanate (FITC) tag. The reaction was performed using DIC and Oxyma coupling reagent and Fmoc deprotection with 20% (v/v) piperidine/DMF solution, all at 90°C. Following the final coupling, peptides were cleaved from the resin using a solution of TFA/TIPS/H2O (95/2.5/2.5) for 3 h. Purification was performed with HPLC and the peptides lyophilized to powder. Prior to use, peptide stock solutions were resolubilized to 10 mM concentration, aliquoted, and stored at −20°C until use.
FP was used to quantify binding affinities of the HPyV LTA cNLSs for IMPαΔIBB proteins. Two‐fold dilutions of recombinant IMPαΔIBB proteins were titrated into black Fluotrac microplates (Greiner Bio‐One, Kremsmünster, Austria) and FITC‐cNLS peptides were added to each well before making up to a total volume of 200 μL with tris‐buffered saline. The gain adjustment was made using a well with no FITC‐NLS peptide. The CLARIOstar Plus (BMG Labtech, Mornington, Australia) plate reader measured FP values, with each assay repeated in triplicate. Binding curves to calculate K d and B max values were generated with the one site specific binding least square fit function of Prism 9 (GraphPad) software.

IMPα5ΔIBB = IMPα5ΔIBB (Homo sapiens, UniProt P52294); experiment: FP assay, FITC-cNLS peptide binding to IMPα5ΔIBB; details: FITC-Ahx-cNLS peptide, two-fold dilutions of recombinant IMPα5ΔIBB, tris-buffered saline, 200 μL, one site specific binding fit, mean ± SEM, three independent experiments, read-out: Kd (nM), a5
Source text: as §1, §2, §3

IMPα1ΔIBB = IMPα1ΔIBB (Homo sapiens, UniProt P52292); experiment: Fluorescence polarization (FP) assay, FITC-cNLS peptide binding to IMPα1ΔIBB; details: FITC-Ahx-cNLS peptide, two-fold dilutions of recombinant IMPα1ΔIBB, tris-buffered saline, 200 μL, one site specific binding fit, mean ± SEM, three independent experiments, read-out: Kd (nM), a1
Source text: as §1, §2, §3

IMPαΔIBB isoforms [2] = experiment: FP assays, summary over all IMPαΔIBB isoforms; assay type: binding
Source text: as §1, with “All samples were aliquoted and stored at −80°C until further use.” left out
as §3

IMPαΔIBB isoforms [3] = experiment: Electrophoresis mobility shift assays (EMSAs) of FITC-cNLS peptides with IMPαΔIBB isoforms; assay type: binding; details: EMSA, 1.5% agarose gel, TB buffer pH 8.5, FITC-cNLS peptide, in words
IMPα2ΔIBB [4] = molecular target: T1, IMPα2ΔIBB; experiment: X-ray crystallography of cNLS peptides complexed with IMPα2ΔIBB; assay type: binding; details: FITC-cNLS peptide soaked or co-crystallized, in words
Source text: Recombinant IMPαΔIBB proteins were produced for structural analysis and assays to elucidate the binding profiles with PyV LTAs. For this, plasmid constructs encoding IMPα isoforms with an N‐terminal truncation removing the autoinhibitory IBB domain (ΔIBB) were synthesized (GenScript Biotech, Singapore). Codon optimized genes were designed with an N‐terminal 6xHis tag and TEV protease cleavage site and were cloned into the BamHI site of pET30a (GenScript Biotech, Singapore). […] For protein expression, the plasmids were transformed via heat shock into BL21(DE3)pLysS E. coli cells (Thermofisher Scientific, Monza, Italy) and grown in 1 L baffled flasks at room temperature using auto‐induction methods for 24–48 h (Studier, [2005]). […] Peak fractions were assessed for purity using SDS‐PAGE, then pooled and concentrated using 10 kDa cutoff centrifugal filters (Merck Millipore, Milan, Italy). […]
X‐ray crystallography was employed to characterize HPyV LTA cNLSs bound to IMPα2ΔIBB. […] Protein interface interactions used in the structure figures were calculated using PDBePISA (Krissinel & Henrick, [2007]), with hydrogens removed in the PDB input models.

Chain of IMPα7ΔIBB (O60684 73-536, stated change not applied): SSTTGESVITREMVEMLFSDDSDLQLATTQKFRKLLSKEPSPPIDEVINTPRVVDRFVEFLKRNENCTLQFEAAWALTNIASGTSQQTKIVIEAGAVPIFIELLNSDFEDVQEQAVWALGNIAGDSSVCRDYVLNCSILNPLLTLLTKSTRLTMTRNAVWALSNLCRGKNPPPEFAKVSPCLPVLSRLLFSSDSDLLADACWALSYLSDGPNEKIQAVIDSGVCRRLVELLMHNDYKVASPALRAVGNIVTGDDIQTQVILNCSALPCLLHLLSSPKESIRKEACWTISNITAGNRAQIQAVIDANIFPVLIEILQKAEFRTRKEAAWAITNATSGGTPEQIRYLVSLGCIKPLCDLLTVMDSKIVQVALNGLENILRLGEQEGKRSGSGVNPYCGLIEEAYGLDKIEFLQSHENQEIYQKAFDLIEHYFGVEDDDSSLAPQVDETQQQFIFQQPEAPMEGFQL
Chain of IMPα3ΔIBB (O00629 64-521, stated change not applied): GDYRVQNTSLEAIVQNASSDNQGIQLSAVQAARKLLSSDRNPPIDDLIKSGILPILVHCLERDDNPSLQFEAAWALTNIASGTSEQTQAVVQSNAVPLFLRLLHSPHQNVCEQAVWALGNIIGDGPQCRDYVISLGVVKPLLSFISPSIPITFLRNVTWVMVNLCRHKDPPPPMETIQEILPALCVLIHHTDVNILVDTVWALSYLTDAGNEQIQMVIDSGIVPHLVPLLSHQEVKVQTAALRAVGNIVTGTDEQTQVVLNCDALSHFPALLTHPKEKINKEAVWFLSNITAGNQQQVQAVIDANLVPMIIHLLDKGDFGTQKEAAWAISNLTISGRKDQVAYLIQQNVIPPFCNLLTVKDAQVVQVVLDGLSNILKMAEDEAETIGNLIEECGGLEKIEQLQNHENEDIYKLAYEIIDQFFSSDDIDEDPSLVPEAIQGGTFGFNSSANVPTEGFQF
Chain of IMPα5ΔIBB (P52294 73-538, stated change not applied): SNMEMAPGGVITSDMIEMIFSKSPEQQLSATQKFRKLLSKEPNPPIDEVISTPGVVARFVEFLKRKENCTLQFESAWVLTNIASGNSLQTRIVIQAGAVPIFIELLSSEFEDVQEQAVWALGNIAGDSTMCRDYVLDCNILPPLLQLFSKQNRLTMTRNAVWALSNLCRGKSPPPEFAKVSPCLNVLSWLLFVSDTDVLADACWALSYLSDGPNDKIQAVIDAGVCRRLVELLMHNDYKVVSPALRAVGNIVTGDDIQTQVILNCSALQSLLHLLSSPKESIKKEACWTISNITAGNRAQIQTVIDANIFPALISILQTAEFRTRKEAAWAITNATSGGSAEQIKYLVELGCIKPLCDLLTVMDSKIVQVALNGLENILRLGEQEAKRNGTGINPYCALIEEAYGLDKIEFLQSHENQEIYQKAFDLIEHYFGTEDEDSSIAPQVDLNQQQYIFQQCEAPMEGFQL

Compound	Kd (IMPα7ΔIBB)	Kd (IMPα3ΔIBB)	Kd (IMPα5ΔIBB)	Kd (IMPα2ΔIBB [1])	Kd (IMPα1ΔIBB)	further results
{FITC-Ahx}-PFSRKRTFGGS [MCPyV NLSm K280T]	–	–	–	–	–	binding to IMPα2ΔIBB (IMPα2ΔIBB [1]): completely abrogated IMPα2ΔIBB binding
{FITC-Ahx}-PFSRKRTFGGSRSSASSASSASFTSTPPKPKKNRE [MCPyV NLSbip K280T]	–	–	–	–	–	binding to IMPα2ΔIBB (IMPα2ΔIBB [1]): completely abrogated IMPα2ΔIBB binding to MCPyV LTA NLSm but not NLSbip
C[C@H](NC(=O)[C@H](Cc1c[nH]cn1)NC(=O)[C@H](CCCCN)NC(=O)[C@H](CCCCN)NC(=O)[C@H](CCCCN)NC(=O)[C@@H]1CCCN1C(=O)[C@@H]1CCCN1C(=O)[C@@H](NC(=O)[C@H](C)NC(=O)[C@H](CCC(N)=O)NC(=O)[C@H](CO)NC(=O)[C@H](CS)NC(=O)[C@H](CO)NC(=O)[C@@H]1CCCN1C(=O)[C@H](CCC(=O)O)NC(=O)[C@H](CCC(=O)O)NC(=O)[C@H](CCC(=O)O)NC(=O)[C@@H]1CCCN1C(=O)[C@H](C)NC(=O)[C@H](CO)NC(=O)[C@H](CCCNC(=N)N)NC(=O)[C@H](CCCCN)NC(=O)CCCCCNC(=S)Nc1ccc2c(c1)C(=O)OC21c2ccc(O)cc2Oc2cc(O)ccc21)[C@@H](C)O)C(=O)O [KIPyV] ({FITC-Ahx}-KRSAPEEEPSCSQATPPKKKHA-OH; C-terminus assumed)	8 ± 1 nM	11 ± 2 nM	10 ± 1 nM	14 ± 3 nM	22 ± 1 nM	–
{FITC-Ahx}-SSSDEEEPASSASVNPEEGCSQDSKYSATPPKQKKPN [HPyV7 LTA cNLS peptide]	–	–	–	–	–	binding to IMPα3ΔIBB (IMPα3ΔIBB; in vitro, FP, in words): weakly binding IMPα3ΔIBB; IMPα isoform specificity (IMPαΔIBB isoforms [2]; in words): selectively bound to IMPα3ΔIBB; Kds for IMPαΔIBB isoforms (IMPαΔIBB isoforms [2]; span over IMPα1, 2, 3, 5, 7 ΔIBB): too weak to allow estimation of a Kd; co-migration with IMPαΔIBB isoforms (IMPαΔIBB isoforms [3]): a very small fraction of HPyV7 LTA monopartite cNLS co‐migrated with IMPαΔIBB isoforms
CSCC[C@H](NC(=O)CCCCCNC(=S)Nc1ccc2c(c1)C(=O)OC21c2ccc(O)cc2Oc2cc(O)ccc21)C(=O)N[C@@H](Cc1ccccc1)C(=O)N[C@@H](C)C(=O)N[C@@H](CO)C(=O)N[C@@H](CC(=O)O)C(=O)N[C@@H](CC(=O)O)C(=O)N[C@@H](CCC(=O)O)C(=O)N[C@@H](CC(N)=O)C(=O)N[C@H](C(=O)NCC(=O)N[C@@H](CO)C(=O)N[C@@H](CCC(N)=O)C(=O)N[C@@H](Cc1c[nH]cn1)C(=O)N[C@@H](CO)C(=O)N[C@H](C(=O)N1CCC[C@H]1C(=O)N1CCC[C@H]1C(=O)N[C@@H](CCCCN)C(=O)N[C@@H](CCCCN)C(=O)N[C@@H](CCCCN)C(=O)N[C@@H](CCCCN)C(=O)N[C@@H](CCCCN)C(=O)N[C@H](C(=O)O)C(C)C)[C@@H](C)O)[C@@H](C)O [JCPyV] ({FITC-Ahx}-MFASDDENTGSQHSTPPKKKKKV-OH; C-terminus assumed)	103 ± 1.1 nM	119 ± 2.8 nM	271 ± 4.1 nM	89.6 ± 3 nM	76.9 ± 2 nM	–
C[C@H](NC(=O)[C@H](CCC(N)=O)NC(=O)[C@H](CO)NC(=O)[C@H](CS)NC(=O)[C@H](CCC(N)=O)NC(=O)[C@@H]1CCCN1C(=O)[C@H](CCC(=O)O)NC(=O)[C@H](CCC(=O)O)NC(=O)[C@H](CC(=O)O)NC(=O)[C@H](CC(=O)O)NC(=O)[C@H](CCC(=O)O)NC(=O)[C@H](CCCNC(=N)N)NC(=O)[C@@H](NC(=O)[C@H](CCCNC(=N)N)NC(=O)[C@H](CCCCN)NC(=O)CCCCCNC(=S)Nc1ccc2c(c1)C(=O)OC21c2ccc(O)cc2Oc2cc(O)ccc21)[C@@H](C)O)C(=O)N[C@H](C(=O)N1CCC[C@H]1C(=O)N1CCC[C@H]1C(=O)N[C@@H](CCCCN)C(=O)N[C@@H](CCCCN)C(=O)N[C@@H](CCCCN)C(=O)N[C@@H](CCCCN)C(=O)N[C@@H](CC(=O)O)C(=O)O)[C@@H](C)O [WUPyV] ({FITC-Ahx}-KRTREDDEEPQCSQATPPKKKKD-OH; C-terminus assumed)	0.1 ± 0.1 nM	0.3 ± 0.03 nM	0.9 ± 0.04 nM	36.1 ± 2.2 nM	0.2 ± 0.02 nM	–
{FITC-Ahx}-MFASDDENTGSQHSTPPKKKKKV [JCPyV LTA NLS peptide, FITC-Ahx-labelled synthetic peptide of JCPyV LTA monopartite cNLS, residues 111-133]	–	–	–	–	–	binding mode in crystal structure with IMPα2ΔIBB (IMPα2ΔIBB [4]): bound as a monopartite cNLS at the major site of IMPα2ΔIBB; co-migration with IMPαΔIBB isoforms (IMPαΔIBB isoforms [3]): co‐migrated with all IMPαΔIBB isoforms
